These results are taken from paper PMC9098178, “SAR of Novel 3-Arylisoquinolinones: meta-Substitution on the Aryl Ring Dramatically Enhances Antiproliferative Activity through Binding to Microtubules” (Journal of Medicinal Chemistry, 2022).

Details of assay [1]: method as in PMID 21127197. To be noted: after compound washout; cited from earlier work.
The subject of assay [2] is MCF-7. Put plainly: SRB antiproliferative assay, MCF-7. The class given is cell-based, human. The method, then:
Initially, the human breast cancer cell line MCF-7 was used in a prescreen analysis of the anticancer activity of 3-arylisoquinolinones. The cells were treated with serial concentrations of compounds 2–8 for 96 h prior to the assessment of proliferation using the sulforhodamine B (SRB) assay. For each compound, the concentration required to inhibit cell growth by 50% compared to that of the untreated control cells (IC50) was determined (Table 1).
(§1) All cell lines used in the study were human-derived and purchased from ATCC (Manassas, USA). Breast adenocarcinoma MCF-7 and MDA-MB-231 cell lines were cultured in DMEM. Hepatocellular carcinoma HepG2 and SNU423 cell lines were grown in MEME combined with 1% (v/v) nonessential amino acids and RPMI supplemented with 2 mM glutamine, respectively. Lung adenocarcinoma A549 and colorectal carcinoma HCT116 cells were grown in RPMI (+2 mM glutamine). All previous media were further supplemented with 10% heat-inactivated fetal bovine serum. The immortalized, normal liver THLE-3 cells were grown in BEGM (Lonza, Cat# CC-3170) onto precoated vessels according to ATCC’s instructions. Human umbilical vein endothelial cells (HUVECs) were cultured in EGM-2 (Lonza, Cat# CC-3162). All of the cells were maintained at 37 °C and 5% CO2 in a humidified incubator.
(§2) Screening of the antiproliferative activity of 3-arylisoquinolinones was performed using the SRB assay as previously described.[56] Exponentially growing HepG2, SNU423, MDA-MB-231, MCF-7, A549, HCT116, THLE-3, and HUVECs were seeded in 96-well plates at densities of 3000, 2000, 1500, 2500, 1000, 1000, 4000, and 4000 cells/well, respectively. These densities were experimentally selected so that the DMSO-treated cells (control) were approximately 80–90% confluent at the assay’s endpoint, and their optical density (OD) values fell within the assay’s linear range. After overnight incubation, the cells were treated with a range of concentrations of the respective compounds for 96 h, 24 h followed by 72 h compound-free incubation or 24 h (for HUVECs only). After treatment, cell monolayers were fixed with 10% (w/v) trichloroacetic acid for 1 h at 4 °C, washed, and dried. Then, the cells were exposed to 0.4% (w/v) SRB dye (prepared in 1% (v/v) acetic acid; Botium, Cat# 80100) for 15 min followed by several 1% acetic acid washing and then drying. Finally, the cellular protein-bound SRB was thoroughly dissolved in 10 mM Tris base, and the OD values were read at 510 nm using a plate reader (μQuant Microplate Spectrophotometer, Biotek, U.K.) coupled with Gen5 software (BioTek, U.K.). Compound-induced changes in cell growth were inferred from changes in OD values. Cell growth was calculated using the following formula: cell growth (%) = (ODtest/ODcontrol) × 100.
(In general: The SRB assay estimates cell density from bound dye.)

For assay [3], the system named is MDA-MB-231. Kind of assay: SRB antiproliferative assay, MDA-MB-231. The class given is cell-based, human. The method, then: (§3) In light of this substantial change in activity between the meta and para compounds, a more comprehensive analysis of the antiproliferative activity was performed for the meta-/para-3-arylisoquinolinone pairs 2 and 3, 4, and 5, as well as 6. A panel of breast (MDA-MB-231), liver (HepG2, SNU423), lung (A549), and colon (HCT116) cancer cell lines were treated with the five 3-arylisoquinolinone analogs for 96 h followed by the SRB assay. The dose–response curves (including those for MCF-7) are presented in Figure S22, and their relevant IC50 values are listed in Table 1. […] The differential activity between meta- and para-3-arylisoquinolinones was reproduced in the National Cancer Institute (NCI) one-dose screen using a panel of 59 cancer cell lines (Figure S23).
as §1, §2

In assay [4] the test system is HepG2. Kind of assay: SRB antiproliferative assay, HepG2. The class given is cell-based, human. The protocol:
as §3, §1, §2

In assay [5] the test system is SNU423. Put plainly: SRB antiproliferative assay, SNU423. The class given is cell-based, human. The method, then: as §3, §1
as §2, with “After overnight incubation, the cells were treated with a range of concentrations of the respective compounds for 96 h, 24 h followed by 72 h compound-free incubation or 24 h (for HUVECs only).” left out

Assay [6] concerns A549. Kind of assay: SRB antiproliferative assay, A549. The class given is cell-based, human. The protocol:
as §3, §1, §2

Assay [7] deals with HCT116. Put plainly: SRB antiproliferative assay, HCT116. The class given is cell-based, human. The protocol: as §3, §1, §2
Assay [8] deals with HepG2 cells. Put plainly: Clonogenic assay. The class given is cell-based, human. Conditions: 14 days. The protocol:
HepG2 cells were treated with varying concentrations of 2–6 added once and kept for 14 days before counting colonies and calculating surviving fraction (Figure 2).
The ability of potential anticancer agents to prevent unlimited cell division and induce reproductive cell death was assessed using clonogenic assay as previously described.[57] In brief, HepG2 cells were seeded into six-well plates at a density of 1000 single cells/well and incubated for 10–12 h to adhere. The cells were then treated with DMSO (control) or a range of concentrations of 2–6 for 14 days. Afterward, the produced colonies were washed with phosphate-buffered saline (PBS), fixed with 70% ethanol for 20 min, and stained with 0.5% (w/v) methylene blue (prepared in 70% methanol). Following washing with water and drying, colonies (≥50 cells) were manually counted. The colony-forming efficiency (CFE) of cells was calculated by dividing the number of colonies formed by the number of cells seeded for each condition. The surviving fraction was determined by dividing the CFE of the treated cells by CFE of the control cells. A survival curve was generated by plotting the log of drug concentrations versus surviving fraction.

Assay [9] deals with panel of 59 cancer cell lines. Kind of assay: NCI one-dose screen. The class given is cell-based. Conditions: 10 µM, 48 h, SRB. The protocol:
as §3
Figure S23. NCI One-Dose Mean graphs for 3-arylisoquinolinones 4, 5 […]
In NCI one-dose screen, the 59 cell lines (classified into 9 groups) were exposed to 4, 5 and 7 at a single dose of 10 µM for 48 h followed by SRB assay. The one-dose data were reported as a mean graph of the growth percentage of treated cells, as relative to the cell number of both the no-drug control and the zero time (before adding the test agent). Values between 0 and 100 indicate growth inhibition, whereas values less than 0 indicate lethality. For instance, a value of 40 means 60% growth inhibition; 0, no growth throughout the experiment; -40, 40% lethality; and - 100, all cells are dead.1
A) One-dose mean graph for 3-arylisoquinolinone 4 (NSC number 795055)

Assay [10] has as its system THLE-3. Kind of assay: SRB antiproliferative assay, normal liver cell line THLE-3. The class given is cell-based, human. Conditions: 24 h +drug/72 h –drug treatment, read-out: mean IC50 ± SEM, THLE-3. The text has this: In the preceding experiments, the cells were continuously exposed to the compounds prior to scoring for the antiproliferative/cytotoxic effects. […] The meta compounds were also examined for the presence of differential antiproliferative activity against cancer cells over the normal liver cell line THLE-3. […] Moreover, the sensitivity of the six cancer cell lines toward compounds 2, 4, and 6 was markedly greater than that of THLE-3 cells.
All cell lines used in the study were human-derived and purchased from ATCC (Manassas, USA). Breast adenocarcinoma MCF-7 and MDA-MB-231 cell lines were cultured in DMEM. Hepatocellular carcinoma HepG2 and SNU423 cell lines were grown in MEME combined with 1% (v/v) nonessential amino acids and RPMI supplemented with 2 mM glutamine, respectively. Lung adenocarcinoma A549 and colorectal carcinoma HCT116 cells were grown in RPMI (+2 mM glutamine). […]
Screening of the antiproliferative activity of 3-arylisoquinolinones was performed using the SRB assay as previously described.[56] […] Finally, the cellular protein-bound SRB was thoroughly dissolved in 10 mM Tris base, and the OD values were read at 510 nm using a plate reader (μQuant Microplate Spectrophotometer, Biotek, U.K.) coupled with Gen5 software (BioTek, U.K.). […] Cell growth was calculated using the following formula: cell growth (%) = (ODtest/ODcontrol) × 100.

Assay [11] relates to purified bovine tubulin. Kind of assay: Cell-free tubulin polymerization assay. The class given is biochemical. To be noted: 10 μM, compared to DMSO control. The text has this:
Experimentally, the direct interaction of 4 with tubulin was investigated in a cell-free system using a tubulin polymerization assay. […] In control samples, α- and β-tubulin subunits were able to heterodimerize and assemble into microtubules in a time-dependent manner as indicated by increasing absorbance values over time. […] This indicates the incidence of fast polymerization associated with the formation of a denser microtubule mass. […] It is worth mentioning that microtubule dynamics can be potently altered by microtubule-stabilizing or -destabilizing compounds at doses 10- to 100-fold lower than those required for increasing or decreasing the microtubule polymer mass.[31]
The cell-free tubulin polymerization experiment was performed using the Tubulin Polymerization Assay Kit according to the manufacturer’s instructions (Millipore, Cat# 17-10194). The light absorbed by microtubules, which were formed upon tubulin polymerization, is directly proportional to the polymer mass. […] Immediately, the plate was placed in a 37 °C-prewarmed plate reader (BMG LABTECH FLUOstar Omega, Germany) and the absorbance was measured at 1 min intervals for 60 min at a wavelength of 350 nm. The delta absorbance (ΔA) was calculated by subtracting the absorbance values of zero time from those of the subsequent time points and then plotted versus time.

The mark [12] stands for this setting: 96 h treatment, mean ± SEM, read-out: IC50 MCF-7 (prescreen).

As usually defined, the IC50 is the concentration at which inhibition is half-maximal.

Read-outs that look alike come from different tables or passages of the source.

As for `COc1cc2c(c(OC)c1OC)-c1ccc(OC)c(=O)cc1[C@@H](NC(C)=O)CC2` [colchicine], the “reversibility of mitotic blockade” value in [1] is listed as “irreversible”.
Regarding `COc1ccc(-c2cc3cc(F)ccc3c(=O)[nH]2)cc1` [compound 3, 6-Fluoro-3-(4-methoxyphenyl)isoquinolin-1(2H)-one], the IC50 in assay [2] (Homo sapiens, MCF7, 96 h treatment, mean ± SEM, read-out: IC50 MCF-7 (prescreen)) is over 50 µM; in assay [3] (Homo sapiens, MDA-MB-231, 96 h treatment, mean ± SEM, read-out: IC50 MDA-MB-231), over 50 µM; in [4] (Homo sapiens, HepG2, 96 h treatment, mean ± SEM, read-out: IC50 HepG2), over 50 µM; in assay [5] (Homo sapiens, SNU-423, 96 h treatment, mean ± SEM, read-out: IC50 SNU423), over 50 µM; in assay [6] (Homo sapiens, A549, 96 h treatment, mean ± SEM, read-out: IC50 A549), over 50 µM; in [7] (Homo sapiens, HCT-116, 96 h treatment, mean ± SEM, read-out: IC50 HCT116) it was over 50 µM. The same compound registered a surviving fraction in [8] (concentrations as high as 20 μM) of 0.5.
As to `CC[C@]1(O)C[C@H]2CN(CCc3c([nH]c4ccccc34)[C@@](C(=O)OC)(c3cc4c(cc3OC)N(C=O)[C@H]3[C@@](O)(C(=O)OC)[C@H](OC(C)=O)[C@]5(CC)C=CCN6CC[C@]43[C@@H]65)C2)C1` [vincristine], the “reversibility of mitotic blockade” value in assay [1] is listed as “irreversible”.
Regarding “7-Fluoro-3-(4-methoxyphenyl)isoquinolin-1(2H)-one [compound 7]”, the IC50 in assay [2] (setting [12]) is over 50 µM. The “inhibition of growth in NCI one-dose screen” value in assay [9] is recorded as “less active”.
Consider `COc1cccc(-c2cc3ccc(F)cc3c(=O)[nH]2)c1` [compound 6], for which the IC50 in assay [2] (24 h +drug/72 h –drug treatment, read-out: mean IC50 ± SEM, MCF-7) is 1.6 ± 0.4 µM; in assay [2] (setting [12]) it was 0.68 ± 0.13 µM; in assay [3] (24 h +drug/72 h –drug treatment, read-out: mean IC50 ± SEM, MDA-MB-231) it was 0.22 ± 0.02 µM; in [3] (96 h treatment, mean ± SEM, read-out: IC50 MDA-MB-231) it was 0.21 ± 0.05 µM; in assay [4] (24 h +drug/72 h –drug treatment, read-out: mean IC50 ± SEM, HepG2), 1.4 ± 0.06 µM; in [4] (96 h treatment, mean ± SEM, read-out: IC50 HepG2), 3.03 ± 0.61 µM. The IC50 was found to be 0.68 ± 0.09 µM in assay [5] (24 h +drug/72 h –drug treatment, read-out: mean IC50 ± SEM, SNU423); 0.6 ± 0.06 µM in assay [5] (96 h treatment, mean ± SEM, read-out: IC50 SNU423); 0.47 ± 0.03 µM in assay [6] (24 h +drug/72 h –drug treatment, read-out: mean IC50 ± SEM, A549); 0.38 ± 0.02 µM in assay [6] (96 h treatment, mean ± SEM, read-out: IC50 A549); 0.21 ± 0.01 µM in assay [7] (24 h +drug/72 h –drug treatment, read-out: mean IC50 ± SEM, HCT116); 0.19 ± 0.01 µM in assay [7] (96 h treatment, mean ± SEM, read-out: IC50 HCT116). Also, in assay [10], the half-maximal inhibitory concentration (IC50) is over 25 µM. In addition, in assay [8] (0.5 or 1 μM), the colony formation result was “No colonies were apparent”.
For the compound `COC(=O)Nc1nc2cc(C(=O)c3cccs3)ccc2[nH]1` [nocodazole], in assay [1], the “reversibility of mitotic blockade” value is “highly reversible”.
For `CN[C@H]1CCc2cc(OC)c(OC)c(OC)c2-c2ccc(OC)c(=O)cc21` [colcemid], in assay [1], the “reversibility of mitotic blockade” value is listed as “highly reversible”.
In the case of `CC(=O)O[C@H]1C(=O)[C@@]2(C)[C@H]([C@H](OC(=O)c3ccccc3)[C@]3(O)C[C@H](OC(=O)[C@H](O)[C@@H](NC(=O)c4ccccc4)c4ccccc4)C(C)=C1C3(C)C)[C@]1(OC(C)=O)CO[C@@H]1C[C@@H]2O` [paclitaxel, reference compound], in assay [11], the “effect on tubulin polymerization (polymerizing control)” value is reported as “higher absorbance values briefly after the onset of the polymerization process”.
